We go through three compounds from article PMC7817691 (Nature Communications, 2021).

Test [1] has as its target T1, SARS-CoV-2 PLpro (Severe acute respiratory syndrome coronavirus 2, UniProt P0DTD1).
T1 construct: gene rep
Type of test: binding.

Test [2] has as its target T1, SARS-CoV-2 PLpro. Type of test: biochemical.

`Cc1ccc(N)cc1C(=O)N[C@H](C)c1cccc2ccccc12` [GRL0617]: the “1H,15N-HSQC NMR competition with 15N-ISG15” value on SARS-CoV-2 PLpro [1] is “GRL0617 competes with ISG15 for the binding site in PLpro”. The IC50 is the midpoint of a concentration-inhibition curve. Low values mean inhibition by little substance, high ones a need for much substance. As for `Nc1nc(=S)c2[nH]cnc2[nH]1` [Tioguanine], on SARS-CoV-2 PLpro [2], the IC50 was found to be 72 ± 12 µM.

Compound `CC(=O)Nc1ccc(C)c(C(=O)N[C@H](C)c2cccc3ccccc23)c1` [compound 6] returned an IC50 on SARS-CoV-2 PLpro [2] of 11 ± 3 µM.
